The subject of this test is HEK293T cells carrying the ATF4 luciferase reporter. Nature of the test: ATF4-Luc assay (in vitro model of vanishing white matter disease). Type of test: cell-based. Particulars: Homo sapiens, HEK-293T; HEK293T cells with ATF4 luciferase reporter, 1 μg/mL tunicamycin, 7 hours, One Glo luminescence. Here is the method:
In order to test exemplary compounds of the invention in a cellular context, a stable VWMD cell line was first constructed. The ATF4 reporter was prepared by fusing the human full-length ATF4 5′-UTR (NCBI Accession No. BC022088.2) in front of the firefly luciferase (FLuc) coding sequence lacking the initiator methionine as described in Sidrauski et al (eLife 2013). The construct was used to produce recombinant retroviruses using standard methods and the resulting viral supernatant was used to transduce HEK293T cells, which were then subsequently selected with puromycin to generate a stable cell line.
HEK293T cells carrying the ATF4 luciferase reporter were plated on polylysine coated 384-well plates (Greiner Bio-one) at 30,000 cells per well. Cells were treated the next day with 1 μg/mL tunicamycin and 200 nM of a compound of Formula (I) for 7 hours. Luminescence was measured using One Glo (Promega) as specified by the manufacturer. Cells were maintained in DMEM with L-glutamine supplemented with 10% heat-inactivated FBS (Gibco) and Antibiotic-Antimycotic solution (Gibco).
Table 2 below summarizes the EC50 data obtained using the ATF4-Luc assay for exemplary compounds of the invention.
On to `CS(=O)(=O)CCN1CC(C(=O)NC23CC(NC(=O)COc4ccc(Cl)c(F)c4)(C2)C3)Oc2ccc(Cl)cc21` (centres unmarked) [Compound 180, 6-chloro-N-{3-[2-(4-chloro-3-fluorophenoxy)acetamido]bicyclo[1.1.1]pentan-1-yl}-4-[2-(methanesulfonyl)ethyl]-3,4-dihydro-2H-1,4-benzoxazine-2-carboxamide], for which the EC50 is 0.01 to 0.05 µM.
As to `COCCC(=O)N1CC(C(=O)NC23CC(NC(=O)COc4ccc(Cl)c(F)c4)(C2)C3)Oc2ccc(Cl)cc21` (centres unmarked) [Compound 181, 6-chloro-N-{3-[2-(4-chloro-3-fluorophenoxy)acetamido]bicyclo[1.1.1]pentan-1-yl}-4-(3-methoxypropanoyl)-3,4-dihydro-2H-1,4-benzoxazine-2-carboxamide], the EC50 lay in the range of 0.01 to 0.05 µM.
As to `O=C(COc1ccc(Cl)c(F)c1)NC12CCC(NC(=O)[C@@H]3COc4ccccc4O3)(CC1)[C@@H](O)C2` [Compound 127, (2S)—N-{(2S)-4-[2-(4-chloro-3-fluorophenoxy)acetamido]-2-hydroxybicyclo[2.2.2]octan-1-yl}-2,3-dihydro-1,4-benzodioxine-2-carboxamide], the EC50 lay in the range of 0.01 to 0.05 µM.
As for `O=C(COc1ccc(Cl)c(F)c1)NC12CC(NC(=O)C3CNc4cc(Cl)ccc4O3)(C1)C2` (centres unmarked) [Compound 113, 6-chloro-N-{3-[2-(4-chloro-3-fluorophenoxy)acetamido]bicyclo[1.1.1]pentan-1-yl}-3,4-dihydro-2H-1,4-benzoxazine-2-carboxamide], the EC50 is under 0.01 µM.
The same measure for `O=C(COc1ccc(Cl)c(F)c1)NC12CC(NC(=O)C3CN(C(=O)C4CC4(F)F)c4cc(Cl)ccc4O3)(C1)C2` (centres unmarked) [Compound 176, 6-chloro-N-{3-[2-(4-chloro-3-fluorophenoxy)acetamido]bicyclo[1.1.1]pentan-1-yl}-4-(2,2-difluorocyclopropane-1-carbonyl)-3,4-dihydro-2H-1,4-benzoxazine-2-carboxamide]: 0.25 to 0.5 µM; for `C[C@@]1(C(=O)NC23CC(NC(=O)COc4ccc(Cl)c(F)c4)(C2)C3)COc2cc3c(cc21)OC(F)(F)O3` [Compound 130, (7S)—N-{3-[2-(4-chloro-3-fluorophenoxy)acetamido]bicyclo[1.1.1]pentan-1-yl}-2,2-difluoro-7-methyl-6,7-dihydro-2H-furo[2,3-f][1,3]benzodioxole-7-carboxamide]: over 2 µM.
The same measure for `O=C(COc1ccc(Cl)c(F)c1)NC12CC(NC(=O)C3CN(C(=O)CO)c4cc(Cl)ccc4O3)(C1)C2` (centres unmarked) [Compound 136, 6-chloro-N-{3-[2-(4-chloro-3-fluorophenoxy)acetamido]bicyclo[1.1.1]pentan-1-yl}-4-(hydroxyacetyl)-3,4-dihydro-2H-1,4-benzoxazine-2-carboxamide]: under 0.01 µM.
For the compound `O=C(COc1ccc(Cl)c(F)c1)NC12CC(NC(=O)[C@H]3COc4ccccc4O3)(C1)C2` [Compound 124, (2R)—N-{3-[2-(4-chloro-3-fluorophenoxy)acetamido]bicyclo[1.1.1]pentan-1-yl}-2,3-dihydro-1,4-benzodioxine-2-carboxamide], the EC50 lay in the range of 0.01 to 0.05 µM.
For `CC(C)(C)OC(=O)CN1CC(C(=O)NC23CCC(NC(=O)COc4ccc(Cl)c(F)c4)(CC2)[C@@H](O)C3)Oc2ccc(Cl)cc21` (stereo partly drawn) [Compound 185, tert-butyl [6-chloro-2-({(3S)-4-[2-(4-chloro-3-fluorophenoxy)acetamido]-3-hydroxybicyclo[2.2.2]octan-1-yl}carbamoyl)-2,3-dihydro-4H-1,4-benzoxazin-4-yl]acetate], the EC50 was 0.05 to 0.25 µM.
As for `O=C(COc1ccc(Cl)c(F)c1)NC12CCC(NC(=O)C3Cc4ccccc4O3)(CC1)C(O)C2` (centres unmarked) [Compound 129, N-{4-[2-(4-chloro-3-fluorophenoxy)acetamido]-2-hydroxybicyclo[2.2.2]octan-1-yl}-2,3-dihydro-1-benzofuran-2-carboxamide], the EC50 lay within 0.25 to 0.5 µM.
For `O=C(COc1ccc(Cl)c(F)c1)NC12CC(NC(=O)[C@H]3CCc4cc(F)ccc4O3)(C1)C2` [Compound 120, (2R)—N-{3-[2-(4-chloro-3-fluorophenoxy)acetamido]bicyclo[1.1.1]pentan-1-yl}-6-fluoro-3,4-dihydro-2H-1-benzopyran-2-carboxamide], the EC50 is under 0.01 µM.
Take `NS(=O)(=O)c1ccc(S(=O)(=O)N2CC(C(=O)NC34CC(NC(=O)COc5ccc(Cl)c(F)c5)(C3)C4)Oc3ccc(Cl)cc32)cc1` (centres unmarked) [Compound 174, 6-chloro-N-{3-[2-(4-chloro-3-fluorophenoxy)acetamido]bicyclo[1.1.1]pentan-1-yl}-4-(4-sulfamoylbenzene-1-sulfonyl)-3,4-dihydro-2H-1,4-benzoxazine-2-carboxamide]: the EC50 was 0.05 to 0.25 µM.
As for `O=C(COc1ccc(Cl)c(F)c1)NC12CC(NC(=O)C3CN(C(=O)C4(C(F)(F)F)CC4)c4cc(Cl)ccc4O3)(C1)C2` (centres unmarked) [Compound 177, 6-chloro-N-{3-[2-(4-chloro-3-fluorophenoxy)acetamido]bicyclo[1.1.1]pentan-1-yl}-4-[1-(trifluoromethyl)cyclopropane-1-carbonyl]-3,4-dihydro-2H-1,4-benzoxazine-2-carboxamide], the EC50 is under 0.01 µM.
For the compound `O=C(COc1ccc(Cl)c(F)c1)NC12CC(NC(=O)C3CCc4cc(Cl)ccc4O3)(C1)C2` (centres unmarked) [Compound 204, 6-chloro-N-{3-[2-(4-chloro-3-fluorophenoxy)acetamido]bicyclo[1.1.1]pentan-1-yl}-3,4-dihydro-2H-1-benzopyran-2-carboxamide], the EC50 is under 0.01 µM.
Take `O=C(COc1ccc(Cl)c(F)c1)NC12CCC(NC(=O)C3Oc4ccccc4O3)(CC1)CC2` [Compound 100, N-{4-[2-(4-chloro-3-fluorophenoxy)acetamido]bicyclo[2.2.2]octan-1-yl}-2H-1,3-benzodioxole-2-carboxamide]: the EC50 is over 2 µM.
On to `O=C(COc1ccc(Cl)c(F)c1)NC12CCC(NC(=O)C3CC(O)c4cc(Cl)ccc4O3)(CC1)C[C@@H]2O` (stereo partly drawn) [Compound 199, 6-chloro-N-{(3S)-4-[2-(4-chloro-3-fluorophenoxy)acetamido]-3-hydroxybicyclo[2.2.2]octan-1-yl}-4-hydroxy-3,4-dihydro-2H-1-benzopyran-2-carboxamide], for which the EC50 was under 0.01 µM.
`O=C(COc1ccc(Cl)c(F)c1)NC12CC(NC(=O)C3CN(C(=O)C4CC4)c4cc(Cl)ccc4O3)(C1)C2` (centres unmarked) [Compound 149, 6-chloro-N-{3-[2-(4-chloro-3-fluorophenoxy)acetamido]bicyclo[1.1.1]pentan-1-yl}-4-(cyclopropanecarbonyl)-3,4-dihydro-2H-1,4-benzoxazine-2-carboxamide]: the EC50 was 0.05 to 0.25 µM.
As for `O=C(COc1ccc(Cl)c(F)c1)NC12CC(NC(=O)[C@H]3CNc4cc(Cl)ccc4O3)(C1)C2` (single isomer, unassigned) [Compound 102], the EC50 was under 0.01 µM.
`O=C(COc1ccc(Cl)c(F)c1)NC12CC(NC(=O)[C@H]3CN(C(=O)[C@H]4C[C@H]4F)c4cc(Cl)ccc4O3)(C1)C2` (single isomer, unassigned) [Compound 142]: the EC50 lay within 0.05 to 0.25 µM.
Turning to `O=C(COc1ccc(Cl)c(F)c1)NC12CC(NC(=O)C3COc4ccccc4O3)(C1)C2` (centres unmarked) [Compound 122, N-{3-[2-(4-chloro-3-fluorophenoxy)acetamido]bicyclo[1.1.1]pentan-1-yl}-2,3-dihydro-1,4-benzodioxine-2-carboxamide], the EC50 fell in the range of 0.01 to 0.05 µM.
As to `O=C(COc1ccc(Cl)c(F)c1)NC12CC(NC(=O)C3CN(C(=O)c4ccno4)c4cc(Cl)ccc4O3)(C1)C2` (centres unmarked) [Compound 154, 6-chloro-N-{3-[2-(4-chloro-3-fluorophenoxy)acetamido]bicyclo[1.1.1]pentan-1-yl}-4-(1,2-oxazole-5-carbonyl)-3,4-dihydro-2H-1,4-benzoxazine-2-carboxamide], the EC50 was under 0.01 µM.
Turning to `O=C(COc1ccc(Cl)c(F)c1)NC12CC(NC(=O)C3CN(C(=O)CC(F)(F)C(F)(F)F)c4cc(Cl)ccc4O3)(C1)C2` (centres unmarked) [Compound 141, 6-chloro-N-{3-[2-(4-chloro-3-fluorophenoxy)acetamido]bicyclo[1.1.1]pentan-1-yl}-4-(3,3,4,4,4-pentafluorobutanoyl)-3,4-dihydro-2H-1,4-benzoxazine-2-carboxamide], the EC50 lay in the range of 0.01 to 0.05 µM.
On to `O=C(COc1ccc(Cl)c(F)c1)NC12CCC(NC(=O)C3CNc4cc(Cl)ccc4O3)(CC1)C[C@@H]2O` (stereo partly drawn) [Compound 114, 6-chloro-N-{(3S)-4-[2-(4-chloro-3-fluorophenoxy)acetamido]-3-hydroxybicyclo[2.2.2]octan-1-yl}-3,4-dihydro-2H-1,4-benzoxazine-2-carboxamide], for which the concentration for a half-maximal effect (EC50) is under 0.01 µM.
The value for `O=C(COc1ccc(Cl)c(F)c1)NC12CC(NC(=O)C3CN(C(=O)C(F)(F)C(F)F)c4cc(Cl)ccc4O3)(C1)C2` (centres unmarked) [Compound 161, 6-chloro-N-{3-[2-(4-chloro-3-fluorophenoxy)acetamido]bicyclo[1.1.1]pentan-1-yl}-4-(2,2,3,3-tetrafluoropropanoyl)-3,4-dihydro-2H-1,4-benzoxazine-2-carboxamide] was under 0.01 µM.
With `O=C(COc1ccc(Cl)c(F)c1)NC12CC(NC(=O)[C@@H]3C[C@H](O)c4cc(Cl)ccc4O3)(C1)C2` (single isomer, unassigned) [Compound 195], the EC50 is under 0.01 µM.
The value for `CC(=O)N1CC(C(=O)NC23CC(NC(=O)COc4ccc(Cl)c(F)c4)(C2)C3)Oc2ccc(Cl)cc21` (centres unmarked) [Compound 157, 4-acetyl-6-chloro-N-{3-[2-(4-chloro-3-fluorophenoxy)acetamido]bicyclo[1.1.1]pentan-1-yl}-3,4-dihydro-2H-1,4-benzoxazine-2-carboxamide] was 0.01 to 0.05 µM.

These data come from patent US20210169892A1, “MODULATORS OF THE INTEGRATED STRESS PATHWAY” (Calico Life Sciences LLC, priority 2017, published 2021).
